Experimental data taken from patent US10961507B2, “Method for producing hepatic stem/precursor cells from mature hepatic cells using low-molecular-weight compound” (Cynity Co., Ltd., priority 2016, dated 2021).

Tested on: CYP1A in Hep-i(+) cells
Assay: Determination of CYP1A activity and CYP1A1/CYP1A2 gene expression after 3-MC treatment
Format: cell-based, rat
Conditions: 5 μM for 4 days
Method: In order to induce CYP1A activity, cells on Day 8 of hepatocyte induction were treated with 5 μM 3-methylcholanthrene (3-MC) (Sigma) for 4 days (the medium was exchanged on the second day). The control cells were treated only with DMSO as a solvent. Four days later, P450-G1o CYP1A1 Assay (Luciferin-CEE) was used to determine CYP1A activity. According to the manufacturer's instruction, this kit can detect CYP1A2 activity more efficiently than CYP1A1 activity. Following CYP1A activity, the DNA content of the cells was measured to normalize the CYP activity. In order to examine the responsiveness to 3-MC, fold changes in activity were calculated as [mean luminescence in the presence of 3-MC/mean luminescence in the absence of 3-MC] for 3 wells/condition in each experiment to determine an average value for five independent experiments. In two experiments, total RNA was isolated to assess the gene expression levels of CYP1A1 and CTP1A2.

Compound: Cc1ccc2cc3c(ccc4ccccc43)c3c2c1CC3 [3-MC, 3-methylcholanthrene]
- CYP1A1 and CYP1A2 gene expressions in response to stimulation: efficiently induced
- CYP1A activity in response to stimulation: efficiently induced
